The record followed here is US5582813A, “Iodine-containing fluorocarbon contrast agents” (Alliance Pharmaceutical Corp., priority 1993, dated 1996).

One series concerns mice. Nature of the series: Toxicity, intraperitoneal injection in mice. It is filed as in vivo. As to conditions: 10 mice, about 45 g/kg, one month. From the text: (§1) Beyond radiopacity and stability, the compounds used in the present invention are biocompatible. They are tolerated in high doses in animals. For example, in intraperitoneal administration in mice, the mice were still alive at the end of the protocol, one month post injection, even after doses of up to 45 g/kg of the iodinated fluorinated compounds used in the present invention had been injected. Further, in intravenous administration to mice of the compounds used in the present invention in emulsified form, the mice lived past the end of the protocol, one month post injection of doses up to 8 g/kg.
(§2) In order to determine the toxicity of Compound IA, we injected mice intraperitoneally with the compound. In the experiment, 10 mice were interperitoneally injected with a dose of about 45 g/kg per animal of Compound IA.
(§3) Compound IIIA was also tested for toxicity, following the procedure described in Example 2. A similar tolerance of greater than 45 g/kg animal weight was observed.
(§4) Each of the composition were intraperitoneally injected into mice at doses of 50 g/kg. All of the mice so injected survived and were alive past the end of the protocol, 30 days post injection.

The nature of series [1]: In vitro opacity to X-rays of compounds in hexane solution (Philips Tomoscan LX). Format: physicochemical. As to conditions: 0.34 mol/L in hexane; 120 kV, 175 mA. On the procedure: In order to determine the relative radiopacity of the compounds used in the present invention to X-rays, we undertook an in vitro study to compare the radiopacity of the above compound (IA) in relation to the radiopacity of perfluorooctyl bromide.
A solution of Compound IA was prepared having a concentration of 0.34 mol/L in hexane. A second solution of perfluorooctyl bromide (PFOB) with the same concentration in hexane was also prepared. The opacity to X-rays of the respective compounds in the hexane solutions was determined using a Philips Tomoscan LX 120 kV, 175 mA apparatus.
Following the procedure described in Example 1, we also measured the opacity to X-rays of Compound IIIA. As described, a solution of Compound IIIA was prepared at a concentration of 0.34 mol/L in hexane.
We also measured the radiopacity of each of the compositions using the in vitro test described in Example 1, where 0.34 mol/L solutions of the compositions were prepared in hexane and scanned using a Philips Tomoscan LX 120 kV, 175 mA apparatus.

The test system of another series is liver. Put plainly: In vivo radiopacity, rabbit liver imaging. On the set-up: species or system rabbits. As to conditions: 0.39 g of Compound IA. On the procedure: In order to determine the ability of the compositions of the present invention to operate as effective contrast enhancement agents, we undertook an in vivo study in rabbits to image their livers.
In the study, 3 rabbits were injected with the emulsion of Example 5 at a dose of 3 mL of emulsion per kg of animal, i.e., 2.34 g/kg (4.2 mM of Compound IA), at the rate of 0.5 mL/min.
The radiopacity of the liver and spleen of each rabbit was then measured. The animals were held in a cage and radiopacity was measured using a Philips Tomoscan LX scanner at 120 kV and 175 mA, with continuous 5 mm scans slice with 7 mm intervals. The duration of each scan was 1.2 seconds. These measurements were taken before the injection, then at 24 hours, 48 hours, 7 days, 15 days, and 30 days after the injection.
The results from this study are shown in FIG. 2, which is a bar graph showing the comparison between the radiopacity of the liver (as determined by the increase in Hounsfield units) observed with the emulsion of Example 5 and a PFOB emulsion (Example 6), at 24 hours and 48 hours after injection. The concentration of the emulsion of Example 5 was at a dose of […]. The concentration of the PFOB emulsion was at a dose of 2.7 g/kg body weight (5.4 mM of Perflubron/kg).

Series [2] is described as follows: Toxicity, intraperitoneal injection in mice. It is filed as in vivo. As to conditions: mouse, in vivo, ip; mice, intraperitoneal, g/kg animal weight; read-out: tolerance.
From the text: as §1, §2, §3, §4

Some results are limits rather than exact numbers.

For `CCCCCCC(I)=CC(F)(F)C(F)(F)C(F)(F)C(F)(F)C(F)(F)C(F)(F)F` [Compound IA, C6 F13 --CH=CI--C6 H13], the “survival after intraperitoneal injection” value in the series on mice is “all animals survived and were thriving, showing no ill effects”. For the same compound, the “radiopacity relative to PFOB” value in series [1] is reported as “approximately four”. Moreover, the “amount of Perflubron giving equivalent contrast enhancement, relative to Compound IA” value with liver was 7 times.

As to `CCCCCCC(I)=CC(F)(F)C(F)(F)C(F)(F)C(F)(F)C(F)(F)C(F)(F)C(F)(F)C(F)(F)F` [Compound IIIA, C8 F17 --CH=CI--C6 H13], in series [2], the MTD was greater than 45000 mg/kg. Moreover, the “opacity to X-rays (in words)” value in series [1] is on record as “A similar opacity was observed for Compound IIIA as was observed for Compound IA”.
